Data published in patent EP0118838A2, “New cephem compounds processes for preparation thereof and pharmaceutical compositions containing them” (FUJISAWA PHARMACEUTICAL CO., LTD., priority 1983, dated 1984).

Experiments:
[1] = test system: Proteus mirabilis 18; assay: In vitro antibacterial activity, two-fold agar-plate dilution method; format: cell-based; conditions: HI-agar, incubation at 37°C for 20 hours, inoculum 10^8 viable cells per ml
Procedure: (§1) In vitro antibacterial activity was determined by the two-fold agar-plate dilution method as described below. One loopful of an overnight culture of each test strain in Trypticase-soy broth (10^8 viable cells per ml.) was streaked on heart infusion agar (HI-agar) containing graded concentrations of test compound , and minimal inhibitory concentration (MIC) was expressed in terms of µg/ml after incubation at 37°C for 20 hours.

[2] = test system: Proteus vulgaris 2; assay: as above; format: cell-based; conditions: HI-agar, incubation at 37°C for 20 hours, inoculum 10^8 viable cells per ml
Procedure: as §1

`Nc1nc(/C(=N/OCC(=O)O)C(=O)NC2C(=O)N3C(C(=O)O)=C(CSc4snc(O)c4C(=O)O)CSC23)ns1` (stereo not drawn) [Test Compound, Sodium 7-[2-(5-amino-1,2,4-thiadiazol-3-yl)-2-carboxymethoxyiminoacetamido]-3-[(4-carboxy-3-hydroxyisothiazol-5-yl)thiomethyl]-3-cephem-4-carboxylate (syn isomer)] gave an MIC [1] of less than 0.025 µg/mL and an MIC [2] of less than 0.025 µg/mL.
